# Results: patent US11464770B2, “Anticancer pharmaceutical composition” (NATIONAL CANCER CENTER, priority 2016, dated 2022)
# Where two headings read alike, the source gives them in different places.
# How the values were obtained:
# [1] = Cell based assay, cytotoxicity in RT4 papilloma cells (selectivity); set-up: species or system human; settings: human; RT4 cells (benign), 72 hours
# [2] = test system: human lung cancer cell line (NCI-H1299); assay: Tumor growth inhibition in animal model using NCI-H1299; type: in vivo; settings: intraperitoneally administered three times a week, NCI-H1299 animal model (FIG. 1)
# [3] = test system: breast cancer cell lines (e.g. MDA-MB-231, SK-BR-3, MDA-MB-468, HCC1954); assay: Cell based assay, cell viability (CellTiter-Glo), breast cancer cell lines
# Summary of the method: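 ATP content as viability surrogate, luminescent read; 72 h compound, 0–2 μM final; cells plated 24 h prior.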
# [4] = Homo sapiens, BT-20 cells, 72 hours treatment, CellTiter-Glo cell viability, read-out: IC50, Breast cancer cell line BT-20
# [5] = Homo sapiens, HCC1395 cells, 72 hours treatment, CellTiter-Glo cell viability, read-out: IC50, Breast cancer cell line HCC1395
# [6] = Homo sapiens, HCC1954 cells, 72 hours treatment, CellTiter-Glo cell viability, read-out: IC50, Breast cancer cell line HCC1954
# [7] = Homo sapiens, JIMT-1 cells, 72 hours treatment, CellTiter-Glo cell viability, read-out: IC50, Breast cancer cell line JIMT-1
# [8] = Homo sapiens, MCF7 cells, 72 hours treatment, CellTiter-Glo cell viability, read-out: IC50, Breast cancer cell line MCF7
# [9] = Homo sapiens, MDA-MB-231 cells, 72 hours treatment, CellTiter-Glo cell viability, read-out: IC50, Breast cancer cell line MDA-MB-231
# [10] = Homo sapiens, MDA-MB-468 cells, 72 hours treatment, CellTiter-Glo cell viability, read-out: IC50, Breast cancer cell line MDA-MB-468
# [11] = Homo sapiens, SK-BR-3 cells, 72 hours treatment, CellTiter-Glo cell viability, read-out: IC50, Breast cancer cell line SK-BR-3
# [12] = MDA-MB-231-L/DOX cells, 72 hours treatment, CellTiter-Glo cell viability, read-out: IC50, Breast cancer cell line MDA-MB-231-L/DOX
Structure (SMILES),"IC50 ([3]; Breast cancer cell line MDA-MB-231-L/DOX, 72 hours, CellTiter-Glo, read-out: IC50, MDA-MB-231-L/DOX)","IC50 ([3]; Homo sapiens, Breast cancer cell line BT-20, 72 hours, CellTiter-Glo, read-out: IC50, BT-20)","IC50 ([3]; Homo sapiens, Breast cancer cell line HCC1395, 72 hours, CellTiter-Glo, read-out: IC50, HCC1395)","IC50 ([3]; Homo sapiens, Breast cancer cell line HCC1954, 72 hours, CellTiter-Glo, read-out: IC50, HCC1954)","IC50 ([3]; Homo sapiens, Breast cancer cell line JIMT-1, 72 hours, CellTiter-Glo, read-out: IC50, JIMT-1)","IC50 ([3]; Homo sapiens, Breast cancer cell line MCF7, 72 hours, CellTiter-Glo, read-out: IC50, MCF7)","IC50 ([3]; Homo sapiens, Breast cancer cell line MDA-MB-231, 72 hours, CellTiter-Glo, read-out: IC50, MDA-MB-231)","IC50 ([3]; Homo sapiens, Breast cancer cell line MDA-MB-468, 72 hours, CellTiter-Glo, read-out: IC50, MDA-MB-468)","IC50 ([3]; Homo sapiens, Breast cancer cell line SK-BR-3, 72 hours, CellTiter-Glo, read-out: IC50, SK-BR-3)","IC50 [3, 4]","IC50 [3, 5]","IC50 [3, 6]","IC50 [3, 7]","IC50 [3, 8]","IC50 [3, 9]","IC50 [3, 10]","IC50 [3, 11]","IC50 [3, 12]",IC50 at 72 h [1],Effect of inhibiting tumor growth [2]
"CC(=O)c1c([S+]([O-])Cc2ccc(SC(F)(F)F)cc2)[nH]c2c(Br)ccc(Cl)c2c1=O (centres unmarked) [Compound 56, 3-acetyl-8-bromo-5-chloro-2-((4-((trifluoromethyl)thio)benzyl)sulfinyl)quinolin-4(1H)-one]",> 2000 nM,> 2000 nM,> 10000 nM,1470 nM,> 10000 nM,> 2000 nM,1450 nM,1640 nM,1380 nM,–,–,–,–,–,–,–,–,–,> 10 µM,effect of inhibiting tumor growth
"CC(=O)c1c([S+]([O-])Cc2cccnc2)[nH]c2c(Br)ccc(Cl)c2c1=O (centres unmarked) [Compound 84, 3-acetyl-8-bromo-5-chloro-2-((pyridin-3-ylmethyl)sulfinyl)quinolin-4(1H)-one]",–,–,–,–,–,–,–,–,–,> 2000 nM,> 10000 nM,1120 nM,> 10000 nM,> 2000 nM,1600 nM,1040 nM,760 nM,> 2000 nM,–,–

# Now from value to molecule, other results behind:
"IC50 ([3]; Breast cancer cell line MDA-MB-231-L/DOX, 72 hours, CellTiter-Glo, read-out: IC50, MDA-MB-231-L/DOX)","IC50 ([3]; Homo sapiens, Breast cancer cell line BT-20, 72 hours, CellTiter-Glo, read-out: IC50, BT-20)","IC50 ([3]; Homo sapiens, Breast cancer cell line HCC1395, 72 hours, CellTiter-Glo, read-out: IC50, HCC1395)","IC50 ([3]; Homo sapiens, Breast cancer cell line HCC1954, 72 hours, CellTiter-Glo, read-out: IC50, HCC1954)","IC50 ([3]; Homo sapiens, Breast cancer cell line JIMT-1, 72 hours, CellTiter-Glo, read-out: IC50, JIMT-1)","IC50 ([3]; Homo sapiens, Breast cancer cell line MCF7, 72 hours, CellTiter-Glo, read-out: IC50, MCF7)","IC50 ([3]; Homo sapiens, Breast cancer cell line MDA-MB-231, 72 hours, CellTiter-Glo, read-out: IC50, MDA-MB-231)","IC50 ([3]; Homo sapiens, Breast cancer cell line MDA-MB-468, 72 hours, CellTiter-Glo, read-out: IC50, MDA-MB-468)","IC50 ([3]; Homo sapiens, Breast cancer cell line SK-BR-3, 72 hours, CellTiter-Glo, read-out: IC50, SK-BR-3)","IC50 [3, 4]","IC50 [3, 5]","IC50 [3, 6]","IC50 [3, 7]","IC50 [3, 8]","IC50 [3, 9]","IC50 [3, 10]","IC50 [3, 11]","IC50 [3, 12]",Structure (SMILES),IC50 at 72 h [1],Effect of inhibiting tumor growth [2]
–,–,–,–,–,–,–,–,–,> 2000 nM,> 10000 nM,500 nM,> 10000 nM,1470 nM,1580 nM,580 nM,580 nM,1110 nM,"Cc1cc(C[S+]([O-])c2[nH]c3c(Cl)ccc(Cl)c3c(=O)c2C(=O)C(C)C)no1 (centres unmarked) [Compound 86, 5,8-dichloro-3-isobutyryl-2-(((5-methylisoxazol-3-yl)methyl)sulfinyl)quinolin-4(1H)-one]",–,–
–,–,–,–,–,–,–,–,–,> 2000 nM,> 10000 nM,1340 nM,> 10000 nM,> 2000 nM,> 2000 nM,1360 nM,1360 nM,> 2000 nM,"COC(=O)c1ccc(C[S+]([O-])c2[nH]c3c(Cl)ccc(Cl)c3c(=O)c2C(C)=O)o1 (centres unmarked) [Compound 89, methyl 5-(((3-acetyl-5,8-dichloro-4-oxo-1,4-dihydroquinolin-2-yl)sulfinyl)methyl)furan-2-carboxylate]",–,–
–,–,–,–,–,–,–,–,–,1870 nM,> 10000 nM,480 nM,> 2000 nM,1290 nM,1410 nM,470 nM,470 nM,1030 nM,"Cc1cc(C[S+]([O-])c2[nH]c3c(Br)ccc(Cl)c3c(=O)c2C(=O)C(C)C)no1 (centres unmarked) [Compound 95, 8-bromo-5-chloro-3-isobutyryl-2-(((5-methylisoxazol-3-yl)methyl)sulfinyl)quinolin-4(1H)-one]",–,–
